The results in this text go back to ChEMBL document CHEMBL1122424, “S-carbobenzoxyglutathione: a competitive inhibitor of mammalian glyoxalase II” (J Med Chem, 1983).

The source made the active and inactive calls. The calls are words filed in the database; no cut-off is given here.

The target in assay [1] is Lactoylglutathione lyase (Mus musculus) (UniProt Q9CPU0). Description: […] inhibitory activity against glyoxalase I in mouse liver; no inhibition. The format is functional.
The target in assay [2] is T1, Lactoylglutathione lyase (Rattus norvegicus) (UniProt Q6P7Q4).
T1 sequence (whole entry): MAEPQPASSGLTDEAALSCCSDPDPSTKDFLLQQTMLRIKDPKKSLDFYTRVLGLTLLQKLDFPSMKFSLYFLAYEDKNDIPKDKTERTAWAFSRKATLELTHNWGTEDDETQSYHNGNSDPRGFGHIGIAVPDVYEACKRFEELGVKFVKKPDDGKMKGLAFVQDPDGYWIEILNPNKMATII
Description: […] inhibitory activity against glyoxalase I in rat liver; no inhibition. The format is functional.

In assay [3] the target is T1, Lactoylglutathione lyase (Rattus norvegicus). Description: In vivo inhibitory activity against glyoxalase I in rat liver. It is filed as functional. The conditions noted are these: concentration not given here.
Assay [4] concerns the target Hydroxyacylglutathione hydrolase, mitochondrial (Rattus norvegicus) (UniProt O35952). Description: (§1) […] inhibitory activity against glyoxalase II in rat liver. The format is functional. The conditions noted are these: concentration not given here.
In assay [5] the target is Hydroxyacylglutathione hydrolase, mitochondrial (Rattus norvegicus, UniProt O35952). Described as §1.
For assay [6], the system named is Lactoylglutathione lyase (Ovis aries). Kind of assay: […] inhibitory activity against glyoxalase I in sheep liver; no inhibition.

Chain of Lactoylglutathione lyase (Mus musculus) (Q9CPU0 2-184 limits assumed): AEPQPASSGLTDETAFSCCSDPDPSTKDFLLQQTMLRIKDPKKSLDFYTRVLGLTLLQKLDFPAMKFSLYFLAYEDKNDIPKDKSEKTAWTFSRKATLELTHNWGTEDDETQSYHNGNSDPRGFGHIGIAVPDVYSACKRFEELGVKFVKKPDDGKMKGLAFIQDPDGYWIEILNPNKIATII

The inhibition is the change of the read-out against control, counted positive when it falls. A lower inhibition goes with a weak effect. What is called Ki is a dissociation constant, usually derived from enzyme kinetics or from competition with a known ligand. A low value points to a stronger hold on the target. Consider `N[C@@H](CCC(=O)N[C@@H](CSC(=O)OCc1ccccc1)C(=O)NCC(=O)O)C(=O)O`, for which the outcome in assay [1], in assay [2] and in assay [6] was inactive. For the same molecule, the inhibition in assay [3] was < 10%; in assay [4], > 50%. This molecule also displayed a Ki in assay [5] of 65 µM.
